Results on 16 compounds are retold here after patent publication US12421252B2, “Spiro (isobenzofuranazetidine) compounds for the treatment of autoimmune disease” (Hoffmann-La Roche Inc., priority 2020, dated 2025).

In the experiment the target is T1, human TLR7 (Homo sapiens, UniProt Q9NYK1).
T1 sequence (Q9NYK1 27-1049): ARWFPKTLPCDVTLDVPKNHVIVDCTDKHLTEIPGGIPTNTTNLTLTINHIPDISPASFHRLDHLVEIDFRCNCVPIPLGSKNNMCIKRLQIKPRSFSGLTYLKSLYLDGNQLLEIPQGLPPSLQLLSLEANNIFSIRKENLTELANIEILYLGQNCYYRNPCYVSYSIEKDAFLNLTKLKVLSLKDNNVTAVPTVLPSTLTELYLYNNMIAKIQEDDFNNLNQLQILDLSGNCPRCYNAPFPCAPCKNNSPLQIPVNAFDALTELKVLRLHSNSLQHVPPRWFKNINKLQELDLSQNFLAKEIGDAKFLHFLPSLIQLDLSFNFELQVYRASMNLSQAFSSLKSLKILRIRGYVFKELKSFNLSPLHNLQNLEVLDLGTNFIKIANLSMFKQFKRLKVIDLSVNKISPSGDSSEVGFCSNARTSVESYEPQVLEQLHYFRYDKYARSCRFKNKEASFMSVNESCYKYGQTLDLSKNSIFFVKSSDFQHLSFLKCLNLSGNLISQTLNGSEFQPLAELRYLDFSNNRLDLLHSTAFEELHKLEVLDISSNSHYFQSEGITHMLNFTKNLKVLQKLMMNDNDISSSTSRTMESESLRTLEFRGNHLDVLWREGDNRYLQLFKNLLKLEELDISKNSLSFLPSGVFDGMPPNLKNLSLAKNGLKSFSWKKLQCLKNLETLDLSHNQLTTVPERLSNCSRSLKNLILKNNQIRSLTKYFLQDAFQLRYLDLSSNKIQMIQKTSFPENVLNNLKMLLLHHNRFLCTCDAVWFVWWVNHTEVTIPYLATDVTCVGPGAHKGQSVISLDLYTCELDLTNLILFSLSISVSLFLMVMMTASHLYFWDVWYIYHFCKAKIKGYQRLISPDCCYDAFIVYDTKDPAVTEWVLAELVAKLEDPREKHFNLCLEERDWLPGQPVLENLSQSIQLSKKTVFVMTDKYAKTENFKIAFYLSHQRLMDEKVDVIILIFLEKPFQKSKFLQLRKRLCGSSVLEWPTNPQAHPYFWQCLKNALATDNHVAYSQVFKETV
The experiment is described as follows: HEK293-Blue-hTLR-7 cells assay. The format is cell-based. As to conditions: HEK293-Blue-hTLR7 cells, R848 stimulation, 20 hrs, SEAP reporter; read-out: HEK/hTLR7 IC50. The source says: HEK293-Blue-hTLR-7 cells assay:
A stable HEK293-Blue-hTLR-7 cell line was purchased from InvivoGen (Cat. #: hkb-htlr7, San Diego, California, USA). These cells were originally designed for studying the stimulation of human TLR7 by monitoring the activation of NF-κB. A SEAP (secreted embryonic alkaline phosphatase) reporter gene was placed under the control of the IFN-β minimal promoter fused to five NF-κB and AP-1-binding sites. The SEAP was induced by activating NF-κB and AP-1 via stimulating HEK-Blue hTLR7 cells with TLR7 ligands. Therefore the reporter expression was declined by TLR7 antagonist under the stimulation of a ligand, such as R848 (Resiquimod), for incubation of 20 hrs. The cell culture supernatant SEAP reporter activity was determined using QUANTI-Blue™ kit (Cat. #: rep-qb1, Invivogen, San Diego, Ca, USA) at a wavelength of 640 nm, a detection medium that turns purple or blue in the presence of alkaline phosphatase.
HEK293-Blue-hTLR7 cells were incubated at a density of 250,000˜450,000 cells/mL in a volume of 170 μL in a 96-well plate in Dulbecco's Modified Eagle's medium (DMEM) containing 4.5 g/L glucose, 50 U/mL penicillin, […], […], 2 mM L-glutamine, 10% (v/v) heat-inactivated fetal bovine serum with addition of 20 μL test compound in a serial dilution in the presence of final DMSO at 1% and 10 μL of 20 uM R848 in above DMEM, perform incubation under 37° C. in a CO2 incubator for 20 hrs. Then 20 μL of the supernatant from each well was incubated with 180 μL Quanti-blue substrate solution at 37° C. for 2 hrs and the absorbance was read at 620˜655 nm using a spectrophotometer. The signaling pathway that TLR7 activation leads to downstream NF-κB activation has been widely accepted, and therefore similar reporter assay was modified for evaluating TLR7 antagonist.
With `C[C@@H]1CN(c2ccc(C#N)n3ncc(F)c23)C[C@H](CN2CC3(C2)OCc2cc(N4CC(C)(N)C4)ccc23)O1` [Example 1, 4-[(2S,6R)-2-[[6-(3-amino-3-methyl-azetidin-1-yl)spiro[1H-isobenzofuran-3,3′-azetidine]-1′-yl]methyl]-6-methyl-morpholin-4-yl]-3-fluoro-pyrazolo[1,5-a]pyridine-7-carbonitrile], the IC50 is 12 nM. To `C[C@@H]1CN(c2ccc(C#N)n3ncc(F)c23)C[C@H](CN2CC3(C2)OCc2cc(N4CC5(CN(C)C5)C4)ccc23)O1` [Example 2, 3-fluoro-4-[(2R,6S)-2-methyl-6-[[6-(6-methyl-2,6-diazaspiro[3.3]heptan-2-yl)spiro[1H-isobenzofuran-3,3′-azetidine]-1′-yl]methyl]morpholin-4-yl]pyrazolo[1,5-a]pyridine-7-carbonitrile] belongs 10 nM. Consider `C[C@@H]1CN(c2ccc(C#N)n3ncc(F)c23)C[C@H](CN2CC3(C2)OCc2cc(N[C@H]4CNC[C@H]4F)ccc23)O1` [Example 3, 3-fluoro-4-[(2S,6R)-2-[[6-[[(3S,4R)-4-fluoropyrrolidin-3-yl]amino]spiro[1H-isobenzofuran-3,3′-azetidine]-1′-yl]methyl]-6-methyl-morpholin-4-yl]pyrazolo[1,5-a]pyridine-7-carbonitrile], for which the IC50 came to 20 nM. The figure for `C[C@@H]1CN(c2ccc(C#N)n3ncc(F)c23)C[C@H](CN2CC3(C2)OCc2cc(N4CC5(CNCCO5)C4)ccc23)O1` [Example 4, 3-fluoro-4-[(2R,6S)-2-methyl-6-[[6-(5-oxa-2,8-diazaspiro[3.5]nonan-2-yl)spiro[1H-isobenzofuran-3,3′-azetidine]-1′-yl]methyl]morpholin-4-yl]pyrazolo[1,5-a]pyridine-7-carbonitrile] is 16 nM; for `C[C@@H]1CN(c2ccc(C#N)n3ncc(F)c23)C[C@H](CN2CC3(C2)OCc2cc(N4CC[C@](C)(N)C4)ccc23)O1` [Example 5, 4-[(2S,6R)-2-[[6-[(3S)-3-amino-3-methyl-pyrrolidin-1-yl]spiro[1H-isobenzofuran-3,3′-azetidine]-1′-yl]methyl]-6-methyl-morpholin-4-yl]-3-fluoro-pyrazolo[1,5-a]pyridine-7-carbonitrile] it is 19 nM; for `C[C@@H]1CN(c2ccc(C#N)n3ncc(F)c23)C[C@H](CN2CC3(C2)OCc2cc(N4CCNCC4)ccc23)O1` [Example 6, 3-fluoro-4-[(2R,6S)-2-methyl-6-[(6-piperazin-1-ylspiro[1H-isobenzofuran-3,3′-azetidine]-1′-yl)methyl]morpholin-4-yl]pyrazolo[1,5-a]pyridine-7-carbonitrile] it is 8 nM. Turning to `C[C@@H]1CN(c2ccc(C#N)n3nccc23)C[C@H](CN2CC3(C2)OCc2cc(N4CC5(CNCCO5)C4)ccc23)O1` [Example 7, 4-[(2R,6S)-2-methyl-6-[[6-(5-oxa-2,8-diazaspiro[3.5]nonan-2-yl)spiro[1H-isobenzofuran-3,3′-azetidine]-1′-yl]methyl]morpholin-4-yl]pyrazolo[1,5-a]pyridine-7-carbonitrile], the IC50 was 15 nM.

Consider `C[C@@H]1CN(c2ccc(C#N)n3ncc(F)c23)C[C@H](CN2CC3(C2)OCc2cc(N4CC(N)C4)ccc23)O1` [Example 9, 4-[(2S,6R)-2-[[6-(3-aminoazetidin-1-yl)spiro[1H-isobenzofuran-3,3′-azetidine]-1′-yl]methyl]-6-methyl-morpholin-4-yl]-3-fluoro-pyrazolo[1,5-a]pyridine-7-carbonitrile], for which the IC50 was 5 nM. To `C[C@@H]1CN(c2ccc(C#N)n3ncc(F)c23)C[C@H](CN2CC3(C2)OCc2cc(N4C[C@H](N)[C@@H](O)C4)ccc23)O1` [Example 10, 4-[(2S,6R)-2-[[6-[(3S,4S)-3-amino-4-hydroxy-pyrrolidin-1-yl]spiro[1H-isobenzofuran-3,3′-azetidine]-1′-yl]methyl]-6-methyl-morpholin-4-yl]-3-fluoro-pyrazolo[1,5-a]pyridine-7-carbonitrile] belongs 8 nM; to `C[C@@H]1CN(c2ccc(C#N)n3ncc(F)c23)C[C@H](CN2CC3(C2)OCc2cc(N4CC5(CNC5)C4)ccc23)O1` [Example 12, 4-[(2S,6R)-2-[[6-(2,6-diazaspiro[3.3]heptan-2-yl)spiro[1H-isobenzofuran-3,3′-azetidine]-1′-yl]methyl]-6-methyl-morpholin-4-yl]-3-fluoro-pyrazolo[1,5-a]pyridine-7-carbonitrile], 10 nM. To `C[C@@H]1CN(c2cc(=O)n(C)c3ncccc23)C[C@H](CN2CC3(C2)OCc2cc(N4CC(N)C4)ccc23)O1` [Example 13, 4-[(2S,6R)-2-[[6-(3-aminoazetidin-1-yl)spiro[1H-isobenzofuran-3,3′-azetidine]-1′-yl]methyl]-6-methyl-morpholin-4-yl]-1-methyl-1,8-naphthyridin-2-one] belongs 10 nM; to `[2H]c1ccc2c(N3C[C@H](CN4CC5(C4)OCc4cc(N6C[C@@H](N)[C@H](OC)C6)ccc45)O[C@H](C)C3)ccc(C#N)c2n1` [Example 16, 5-[(2S,6R)-2-[[6-[(3R,4R)-3-amino-4-methoxy-pyrrolidin-1-yl]spiro[1H-isobenzofuran-3,3′-azetidine]-1′-yl]methyl]-6-methyl-morpholin-4-yl]-2-deuterio-quinoline-8-carbonitrile], 19 nM; to `[2H]c1ccc2c(N3C[C@H](CN4CC5(C4)OCc4cc(N6C[C@H]7NCCO[C@@H]7C6)ccc45)O[C@H](C)C3)ccc(C#N)c2n1` [Example 17, 5-[(2S,6R)-2-[[6-[(4aR,7aR)-3,4,4a,5,7,7a-hexahydro-2H-pyrrolo[3,4-b][1,4]oxazin-6-yl]spiro[1H-isobenzofuran-3,3′-azetidine]-1′-yl]methyl]-6-methyl-morpholin-4-yl]-2-deuterio-quinoline-8-carbonitrile], 15 nM. In the case of `[2H]c1ccc2c(N3C[C@H](CN4CC5(C4)OCc4cc(N6CCNCC6)ccc45)O[C@H](C)C3)ccc(C#N)c2n1` [Example 18, 2-deuterio-5-[(2R,6S)-2-methyl-6-[(6-piperazin-1-ylspiro[1H-isobenzofuran-3,3′-azetidine]-1′-yl)methyl]morpholin-4-yl]quinoline-8-carbonitrile], the IC50 was 7 nM. In the case of `C[C@@H]1CN(c2ccc(C#N)n3nccc23)C[C@H](CN2CC3(C2)OCc2cc(N4CC(N)C4)ccc23)O1` [Example 19, 4-[(2S,6R)-2-[[6-(3-aminoazetidin-1-yl)spiro[1H-isobenzofuran-3,3′-azetidine]-1′-yl]methyl]-6-methyl-morpholin-4-yl]pyrazolo[1,5-a]pyridine-7-carbonitrile], the IC50 stood at 19 nM. The figure for `[2H]c1ccc2c(N3C[C@H](CN4CC5(C4)OCc4cc(N6CC(N)C6)cnc45)O[C@H](C)C3)ccc(C#N)c2n1` [Example 20, 5-[(2S,6R)-2-[[3-(3-aminoazetidin-1-yl)spiro[5H-furo[3,4-b]pyridine-7,3′-azetidine]-1′-yl]methyl]-6-methyl-morpholin-4-yl]-2-deuterio-quinoline-8-carbonitrile] is 9 nM.
